Data from US20090258860A1, “XANTHINE DERIVATIVES FOR THE TREATMENT OF VASCULAR DEPRESSION” (Duke University, priority 2006, published 2009).

What was measured:
[1] = in vivo; cited from earlier work
[2] = system: elderly patients with a diagnosis of vascular depression; experiment: Case studies of pentoxifylline and propentofylline treatment of vascular depression (HDRS); assay type: in vivo, human; settings: oral monotherapy
Experimental: Patients are evaluated at baseline and at regular intervals for a period of months. They are evaluated according to the Hamilton Depressive Rating Scale (HDRS; Hamilton, J. Neurol. Neurosurg. Psychiatry 23:56-62 (1960)). Patients are excluded if their HDRS is ≦15.
In one group, pentoxifylline is administered orally in a dose of 400 mg three times a day. In another group, propentofylline is administered orally in a dose of 200 mg three times a day.

[3] = system: elderly patients with a diagnosis of vascular depression currently being treated with an SSRI and/or SNRI; experiment: Case studies of pentoxifylline and propentofylline add-on treatment of vascular depression (HDRS); assay type: in vivo, human; settings: add-on to existing SSRI and/or SNRI
Experimental: These case studies investigate the effects of pentoxifylline and propentofylline in one or more elderly patients (>60 years of age) with a diagnosis of vascular depression and who are currently being treated with an SSRI and/or SNRI.
Patients are evaluated at baseline and at regular intervals for a period of months. They are evaluated according to the Hamilton Depressive Rating Scale (HDRS; Hamilton, J. Neurol. Neurosurg. Psychiatry 23:56-62 (1960)).
In one group, pentoxifylline is administered orally in a dose of 400 mg three times a day to augment their SSRI and/or SNRI treatment regimen. In another group, propentofylline is administered orally in a dose of 200 mg three times a day to augment their SSRI and/or SNRI treatment regimen.

[4] = system: patients with multi-infarct dementia; settings: cited from earlier work

SMILES | cerebral blood flow [1] | tolerability [2] | tolerability [3] | intellectual and cognitive function [4]
CC(O)CCCCn1c(=O)c2c(ncn2C)n(C)c1=O (stereo not drawn) [1(5-hydroxyhexyl)-3,7-dimethylxanthine] | increasing cerebral blood flow | – | – | –
CCCn1cnc2c1c(=O)n(CCCCC(C)=O)c(=O)n2C [propentofylline, 1-(5-oxohexyl)-3-methyl-7-n-propylxanthine] | – | well tolerated | well tolerated | –
CC(=O)CCCCn1c(=O)c2c(ncn2C)n(C)c1=O [pentoxifylline, 1-(5-oxohexyl)-3,7-dimethylxanthine] | – | well tolerated | well tolerated | improve
